IC50 data for 1 molecule are collected here from patent US8217045B2, “Organic compounds” (Novartis AG, priority 2007, dated 2012).

The target of assay [1] is T1, c-Abl (His-cAbl) (Homo sapiens, UniProt P00519).
T1 construct: The His-tagged kinase domain of Abl is cloned and expressed; His tag; made in house; host or cells: baculovirus/Sf9
T1 sequence (P00519 242-493 limits assumed): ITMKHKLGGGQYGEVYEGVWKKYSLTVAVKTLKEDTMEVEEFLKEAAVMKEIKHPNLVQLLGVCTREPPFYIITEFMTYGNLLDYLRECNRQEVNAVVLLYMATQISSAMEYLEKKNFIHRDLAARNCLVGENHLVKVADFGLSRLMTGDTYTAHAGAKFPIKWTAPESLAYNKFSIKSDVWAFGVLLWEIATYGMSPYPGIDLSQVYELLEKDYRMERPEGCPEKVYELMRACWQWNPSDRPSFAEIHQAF
The assay is described as follows: in vitro enzyme assay, wild-type Abl catalysed phosphorylation. The format is biochemical. Particulars: 16 nM His-cAbl, 10 μM ATP, 1 hour at 30° C.; read-out: IC50, inhibition of wild-type Abl catalysed phosphorylation. The procedure:
Test for activity against wild-type and mutant Abl protein tyrosine kinase:
The test, an in vitro enzyme assay, is conducted as a filter binding assay as follows: The His-tagged kinase domain of Abl is cloned and expressed in the baculovirus/Sf9 system as described by Bhat et al., J. Biol. Chem. 1997; 272:16170-16175. A protein of 37 kD (Abl kinase) is purified by a two-step procedure over a Cobalt metal chelate column followed by an anion exchange column with a yield of 1-2 mg/L of Sf9 cells. The purity of the Abl kinase is >90% as judged by SDS-PAGE after Coomassie blue staining.
Based on the optimized assay conditions for the individual kinases a specific assay set-up was chosen. The assays were prepared and incubated on a liquid handling robot system using 384-well plates. To the assay plates containing 50 nL compound or control solutions, 4.5 μL of solution A consisting of the peptide substrate and ATP in assay buffer were added. The reactions were initiated by adding 4.5 μL of solution B consisting of the respective kinase in assay buffer. The reactions were incubated for 1 hour at 30° C. in a final reaction volume of 9.05 μL. Based on a generic assay buffer (50 mM HEPES pH7.5, 1 mM DTT, 0.02% Tween20, 0.02% BSA), following components were added depending on the chosen kinase: • c-Abl: 16 nM His-cAbl, 5 μM peptide substrate (FITC-Ahx-EAIYAAPFAKKK-CONH2), 10 mM MgCl2, 10 μM ATP • c-Abl-T315I: 2.4 nM His-cAbl-T315I, 5 μM peptide substrate (FITC-Ahx-EAIYAAPFAKKK-CONH2), 10 mM MgCl2, 10 μM ATP
After incubation, the kinase reactions were stopped by the addition of 16 μL of stop solution (100 mM HEPES, 5% DMSO, 0.1% Coating reagent, 10 mM EDTA, 0.015% Brij 35). Subsequently, the assay plates were transferred to a Caliper LabChip3000 reader and the unphosphorylated substrate and the phosphorylated product were separated and quantitated in a microfluidic chip.

Assay [2] concerns the target Bcr-Abl (Homo sapiens, UniProt P00519). In words: Bcr-Abl phosphorylation capture ELISA in 32D-Bcr-Abl cells. In kind it is cell-based, murine. Particulars: 90 min at 37° C., read-out: IC50, reduction of Bcr-Abl phosphorylation. The text has this: 32D cl3 cells are obtained from the American Type Culture Collection (ATCC CRL11346) and Ba/F3 cells are obtained from the German Collection of Microorganisms and Cell Cultures (DSMZ, Braunschweig and DSMZ No. ACC 300) Palacios et al., Nature, 1984; 309:126 and Palacios et al., Cell, 1985:41:72.
Oncogene 1996; 12: 839-46; and Okuda K, Golub T R, Gilliland D G, Griffin J D. p210BCR-ABL, p190BCR-ABL, and TEL/ABL activate similar signal transduction pathways in hematopoietic cell lines. Oncogene 1996; 13:1147-52.)
The cells express the fusion Bcr-Abl protein with a constitutively active Abl kinase and proliferate growth factor independent. The cells are expanded in RPMI 1640 (AMIMED), 10% fetal calf serum (FCS), 2 mM glutamine (Gibco) (“complete medium”), and a working stock is prepared by freezing aliquots of 2×10^6 cells per vial in freezing medium (95% FCS, 5% DMSO (SIGMA)). After thawing, the cells are used during maximally 10-12 passages for the experiments. The antibody anti-Abl SH3 domain cat. #06-466 from Upstate Biotechnology is used for the ELISA. For detection of Bcr-Abl phosphorylation, the anti-phosphotyrosine antibody Ab PY20, labelled with alkaline phosphatase ([…]) from ZYMED (cat. #03-7722) is used. […]

Sequence of Bcr-Abl (P00519 with tags, fused parts or gaps): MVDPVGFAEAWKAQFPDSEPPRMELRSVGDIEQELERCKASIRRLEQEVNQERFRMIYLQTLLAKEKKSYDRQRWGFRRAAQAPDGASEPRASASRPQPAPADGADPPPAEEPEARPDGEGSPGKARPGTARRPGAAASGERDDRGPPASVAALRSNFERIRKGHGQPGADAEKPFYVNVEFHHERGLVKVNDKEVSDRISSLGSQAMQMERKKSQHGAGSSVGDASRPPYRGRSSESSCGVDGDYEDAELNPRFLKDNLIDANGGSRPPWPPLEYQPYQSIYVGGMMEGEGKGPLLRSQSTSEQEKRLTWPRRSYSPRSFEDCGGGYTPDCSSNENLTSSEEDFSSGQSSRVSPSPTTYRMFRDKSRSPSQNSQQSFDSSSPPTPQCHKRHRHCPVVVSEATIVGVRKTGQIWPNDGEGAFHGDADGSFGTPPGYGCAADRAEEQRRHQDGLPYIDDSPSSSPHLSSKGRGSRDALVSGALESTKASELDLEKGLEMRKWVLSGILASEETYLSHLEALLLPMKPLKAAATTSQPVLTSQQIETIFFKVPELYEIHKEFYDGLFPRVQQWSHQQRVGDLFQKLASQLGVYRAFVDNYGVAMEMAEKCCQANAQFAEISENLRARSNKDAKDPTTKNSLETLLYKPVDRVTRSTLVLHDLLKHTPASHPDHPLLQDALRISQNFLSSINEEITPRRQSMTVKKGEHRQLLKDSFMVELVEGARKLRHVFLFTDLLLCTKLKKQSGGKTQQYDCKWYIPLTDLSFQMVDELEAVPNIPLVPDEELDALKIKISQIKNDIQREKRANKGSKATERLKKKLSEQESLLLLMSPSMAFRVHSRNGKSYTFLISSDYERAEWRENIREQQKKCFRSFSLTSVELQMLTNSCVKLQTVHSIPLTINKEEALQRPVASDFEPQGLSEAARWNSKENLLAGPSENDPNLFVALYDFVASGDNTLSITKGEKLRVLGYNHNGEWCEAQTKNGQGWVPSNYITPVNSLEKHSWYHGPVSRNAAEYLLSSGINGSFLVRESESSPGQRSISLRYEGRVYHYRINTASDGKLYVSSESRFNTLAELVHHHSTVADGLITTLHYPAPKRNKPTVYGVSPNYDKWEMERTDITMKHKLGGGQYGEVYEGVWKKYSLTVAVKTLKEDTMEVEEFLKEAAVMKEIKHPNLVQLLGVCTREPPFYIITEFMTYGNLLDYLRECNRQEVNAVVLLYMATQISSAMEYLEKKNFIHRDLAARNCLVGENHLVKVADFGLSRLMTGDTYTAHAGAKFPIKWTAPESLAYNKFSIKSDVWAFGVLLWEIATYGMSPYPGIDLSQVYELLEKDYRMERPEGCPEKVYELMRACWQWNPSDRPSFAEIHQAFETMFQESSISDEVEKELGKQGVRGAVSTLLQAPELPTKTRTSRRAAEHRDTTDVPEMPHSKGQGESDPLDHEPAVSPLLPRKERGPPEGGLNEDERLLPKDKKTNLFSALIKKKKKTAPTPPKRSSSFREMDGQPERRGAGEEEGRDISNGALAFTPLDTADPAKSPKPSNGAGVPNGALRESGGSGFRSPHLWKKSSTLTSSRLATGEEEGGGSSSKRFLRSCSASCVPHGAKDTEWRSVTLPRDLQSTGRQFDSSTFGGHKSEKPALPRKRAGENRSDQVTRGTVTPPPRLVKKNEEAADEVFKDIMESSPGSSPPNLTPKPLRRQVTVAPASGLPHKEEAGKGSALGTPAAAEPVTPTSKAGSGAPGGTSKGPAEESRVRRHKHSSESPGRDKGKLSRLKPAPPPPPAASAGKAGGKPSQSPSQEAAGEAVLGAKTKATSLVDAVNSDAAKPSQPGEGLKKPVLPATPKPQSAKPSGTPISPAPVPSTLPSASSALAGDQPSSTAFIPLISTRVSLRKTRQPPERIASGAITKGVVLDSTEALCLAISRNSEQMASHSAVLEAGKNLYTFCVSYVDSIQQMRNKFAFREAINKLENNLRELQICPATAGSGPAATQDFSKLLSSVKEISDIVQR

As for `O=C(Nc1cc(N2CCNCC2)cc(C(F)(F)F)c1)c1cccc2cc(Oc3ccnc(NC(=O)C4CC4)c3)ccc12` [Example 10, 6-[[2-(Cyclopropanecarbonyl-amino)-pyridin-4-yl]oxy]-naphthalene-1-carboxylic acid (3-piperazin-1-yl-5-trifluoromethyl-phenyl)-amide], the IC50 – broadly, the concentration that gives 50% inhibition – in assay [1] is less than 5 nM; in assay [2], 101 to 370 nM.
